From patent US20090062395A1, “RENIN INHIBITORS FOR THE TREATMENT OF HYPERTENSION” (priority 2006, published 2009)

Columns and labels:
[1] = test system: patients; experiment: Long-term study, placebo-controlled randomized withdrawal period from month 11 (visit 10); type: in vivo, human; conditions: for Mean change (SD) from Month 11 (Visit 10) in msDBP / Mean change (SD) from Month 11 (Visit 10) in msSBP: continued aliskiren monotherapy 150 or 300 mg
Method: Persistence of effect was examined after a long-term study in which patients were treated for approximately 1 year. Patients were randomly assigned to aliskiren at either 150 mg or 300 mg a day. Aliskiren was increased to 300 mg in those patients who had not responded to 150 mg. Starting at the end of treatment month 2 and 3, investigators adjusted individual therapy in order to achieve a goal BP of <140/90 mm Hg. Subsequent upward dose titration required that BP exceed 140/90 for two consecutive visits. No downward titration of aliskiren was permitted.
At month 11 (visit 10), patients who had been maintained on aliskiren monotherapy entered a placebo-controlled randomized withdrawal study to confirm continued efficacy. Eligible patients were stratified based on dose and randomized in a 1:1 ratio to either continue their current treatment of aliskiren monotherapy (aliskiren 150 mg or aliskiren 300 mg) or be switched to placebo in a double-blind fashion.
The potential for a rebound effect on BP with abrupt treatment withdrawal was evaluated.
Rebound was defined as a rise of >5 mm Hg for diastolic and >10 mm for systolic was used and the results are presented separately.

[2] = test system: patients; experiment: Abrupt withdrawal of aliskiren after eight weeks of treatment, compared with placebo (FIG. 3); type: in vivo, human
Method: In another study, the potential for rebound hypertension following abrupt withdrawal of aliskiren treatment was evaluated in those patients who completed eight weeks of treatment compared to patients that were given a placebo only. The tested doses were 150, 300 and 600 mg of aliskiren.

[3] = End point: Month 11 + 28 days or last visit carried forward
[4] = Visit 11, Month 11 + 7 Days, randomized withdrawal ITT population

- Rebound effect on BP with abrupt treatment withdrawal ([1]; rebound defined as rise of >5 mm Hg diastolic and >10 mm systolic): no sign of rebound
- Rebound hypertension following abrupt withdrawal ([2]; after eight weeks of aliskiren 150, 300 or 600 mg, two weeks after withdrawal): no signs of rebound hypertension
Structure (SMILES): COCCCOc1cc(C[C@@H](C[C@H](N)[C@@H](O)C[C@H](C(=O)NCC(C)(C)C(N)=O)C(C)C)C(C)C)ccc1OC [aliskiren, 2(S),4(S),5(S),7(S)—N-(3-amino-2,2-dimethyl-3-oxopropyl)-2,7-di(1-methylethyl)-4-hydroxy-5-amino-8-[4-methoxy-3-(3-methoxy-propoxy)phenyl]-octanamide]
- Mean change (SD) from Month 11 (Visit 10) in msDBP [1, 3]: 1.2 (6.9) mm Hg
- Mean change (SD) from Month 11 (Visit 10) in msSBP [1, 3]: 1.7 (10.1) mm Hg
- Mean change (SD) from Month 11 (Visit 10) in msDBP [1, 4]: 0.3 (6.8) mm Hg
- Mean change (SD) from Month 11 (Visit 10) in msSBP [1, 4]: 1.3 (10.3) mm Hg
- Mean change (SD) from Month 11 (Visit 10) in msDBP ([1]; Visit 12, Month 11 + 14 Days): 0.3 (6.8) mm Hg
- Mean change (SD) from Month 11 (Visit 10) in msSBP ([1]; Visit 12, Month 11 + 14 Days): 0.3 (10.4) mm Hg
- Mean change (SD) from Month 11 (Visit 10) in msDBP ([1]; Visit 13, Month 11 + 21 Days): 0.4 (6.7) mm Hg
- Mean change (SD) from Month 11 (Visit 10) in msSBP ([1]; Visit 13, Month 11 + 21 Days): 0.5 (10.6) mm Hg
- Mean change (SD) from Month 11 (Visit 10) in msDBP ([1]; Visit 14, Month 11 + 28 Days): 1.1 (6.8) mm Hg
- Mean change (SD) from Month 11 (Visit 10) in msSBP ([1]; Visit 14, Month 11 + 28 Days): 1.8 (10.1) mm Hg
- Persistence of blood pressure lowering effect after withdrawal ([1]; patients switched to placebo at month 11 after aliskiren 150 or 300 mg monotherapy): a persistence of a blood pressure lowering effect was observed for several weeks after withdrawal
- Patients with msDBP and msSBP values remaining below baseline ([2]; 4 days and 2 weeks after drug withdrawal, aliskiren 150 mg, 300 mg and 600 mg groups versus placebo group): more patients in the aliskiren 150 mg, 300 mg, and 600 mg groups had msDBP and msSBP values that remained below baseline compared with the placebo group
- Persistence of the antihypertensive effect following withdrawal ([2]; after eight weeks of aliskiren 150, 300 or 600 mg, study period of two weeks): a good persistence of the antihypertensive effect
- BP after withdrawal of study drug versus placebo group ([2]; aliskiren 150, 300 and 600 mg for eight weeks, throughout the drug withdrawal period): values still remained lower than those in the placebo group
